Assay results as given in ChEMBL document CHEMBL1129339, “Mapping the aspartic acid binding site of Escherichia coli asparagine synthetase B using substrate analogs” (J Med Chem, 1996).

What was measured:
[1] = test system: Asparagine synthetase B (Escherichia coli); test: Non competitive Inhibition constant of Asparagine synthetase of Glutamine-Dependent Synthetase Activity using glutamine as substrate
[2] = test system: Asparagine synthetase B (Escherichia coli); test: Competitive Inhibition constant of Asparagine synthetase of Glutamine-Dependent Synthetase Activity using aspartate as substrate
[3] = test system: Asparagine synthetase B (Escherichia coli); test: Non competitive Inhibition constant of Asparagine synthetase of Glutamine-Dependent Synthetase Activity using ATP as substrate
[4] = test system: Asparagine synthetase B (Escherichia coli); test: Noncompetitive Inhibition constant of Asparagine synthetase of Glutamine-Dependent Synthetase Activity using ATP as substrate
[5] = test system: Asparagine synthetase B (Escherichia coli); test: Uncompetitive Inhibition constant of Asparagine synthetase of Glutamine-Dependent Synthetase Activity using glutamine as substrate
[6] = test system: Asparagine synthetase B (Escherichia coli); test: Noncompetitive Inhibition constant of Asparagine synthetase of Glutamine-Dependent Synthetase Activity using aspartate as substrate
[7] = test system: Asparagine synthetase B (Escherichia coli); test: Noncompetitive Inhibition constant of Asparagine synthetase of Glutamine-Dependent Synthetase Activity using glutamine as substrate

| SMILES | Kii [1] [mM] | Kis [1] [mM] | Kis [2] [mM] | Kii [3] [mM] | Kis [3] [mM] | Kii [4] [mM] | Kis [4] [mM] | Kii [5] [mM] | Kii [6] [mM] | Kis [6] [mM] | Kii [7] [mM] | Kis [7] [mM] |
| --- | --- | --- | --- | --- | --- | --- | --- | --- | --- | --- | --- | --- |
| C[C@@H](C(=O)O)[C@H](N)C(=O)O (single isomer, unassigned) | 1.71 | 1.62 | 0.25 | 3.28 | 0.45 |  |  |  |  |  |  |  |
| O=C(O)[C@H]1NCC[C@H]1C(=O)O |  |  | 2.65 |  |  | 4.8 | 2.65 | 2.57 |  |  |  |  |
| C[C@H](C(=O)O)[C@H](N)C(=O)O |  |  |  |  |  | 15 | 8 |  | > 50 | 18 | 16.5 | 93 |
